For assay [1], the system named is MAGI-CCR5 HeLa cells viability, MTS, 10% serum. In words: MAGI-CCR5 HeLa cell viability loss – MTS, 5% and 10% serum, cytotoxicity control for HIV-1 antiviral lead project, SAR follow-up (AID 2649).
In assay [2] the test system is MAGI-CCR5 HeLa cells viability, MTS, 5% serum. The assay is described as above.

Calls of active or inactive are those of the source.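 Rule for the calls: active = lowest viability as percent of untreated cell control, measured with 5% serum, under 70% cytotoxic; inactive = the rest.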

Broadly, the CC50 is the concentration giving 50% cytotoxicity.

Compound `COc1cc(/C=C2\SC(=O)N(c3ccccc3Cl)C2=O)cc([N+](=O)[O-])c1O` registered a CC50 in assay [1] of more than 100 µM.
Turning to `CCC(C)(C)C1CCc2c(sc(NC(=O)c3ccccc3C(=O)O)c2C#N)C1` (stereo not drawn), in assay [1], the half-maximal cytotoxic concentration (CC50) is more than 100 µM.
For `CC(C)(C)c1cc(-c2csc(Nc3ccccc3)[n+]2Cc2ccc(C(=O)O)cc2)cc(C(C)(C)C)c1O`, the CC50 in assay [1] is 62.4 µM; in assay [2], 54.9 µM.
For `CCOC(=O)c1sc(N2C(=O)C(O)=C(C(=O)c3ccc(C)o3)C2c2cccc([N+](=O)[O-])c2)nc1C` (stereo not drawn) the same measures were more than 100 µM and > 100 µM (inactive).
As for `Oc1c(Cl)cc(Cl)c(Cl)c1Cc1c(O)c(Cl)cc(Cl)c1Cl`, the results for the CC50 in assay [1] and in assay [2] were more than 100 µM and 56.5 µM, respectively.
`COc1cc(/C=N/NS(=O)(=O)c2ccc3ccccc3c2)ccc1OCc1ccc(C(=O)O)cc1`: the results for the CC50 in assay [1] and in assay [2] were more than 100 µM and > 100 µM (inactive), respectively.
For `CC(C)NC(=O)c1sc(=S)n2c1[nH]c(=O)c1ccc(C(=O)NCCc3ccc(Cl)cc3)cc12` the same measures were more than 100 µM and > 100 µM (inactive).
For `O=[N+]([O-])c1cc([N+](=O)[O-])c2oc(-c3ccccc3)c(Br)c2c1O` the same measures were more than 100 µM and 38.7 µM.
In assay [1], `CCOC(=O)C1=C(C)N=c2sc(=Cc3ccc(OCC(=O)O)cc3)c(=O)n2C1c1ccc(OC(C)C)cc1` (stereo not drawn) gave a CC50 of more than 100 µM.
`Cc1c(Cl)cccc1NS(=O)(=O)c1ccc2c(c1)C1C=CCC1C(c1ccc(C(=O)O)cc1)N2` (stereo not drawn): the CC50 in assay [1] was more than 100 µM; in assay [2], 71.7 µM.
For the compound `Cc1c2c(=O)n(-c3nc4ccccc4s3)nc-2cc(O)n1Cc1ccccc1`, the CC50 in assay [1] is more than 100 µM; in assay [2], > 100 µM (inactive).
For `O=C(O)c1ccccc1N=Nc1c(O)[nH]c2ccc([N+](=O)[O-])cc12` the same measures were more than 100 µM and > 100 µM (inactive).
For `CSc1nnc(-c2ccccc2N=Cc2c(C)[nH]n(-c3ccc4ccccc4c3)c2=O)c(=O)[nH]1` the same measures were more than 100 µM and > 100 µM (inactive).
For `CCC(Sc1nc2ccsc2c(=O)n1Cc1ccc(C(=O)O)cc1)C(=O)Nc1ccc(C)c(Cl)c1` (stereo not drawn) the same measures were more than 100 µM and > 100 µM (inactive).
With `O=C(N/N=C/c1c(O)n(C2CCCCC2)c(=S)[nH]c1=O)c1ccccc1O`, the CC50 in assay [1] was more than 100 µM; in assay [2] it was > 100 µM (inactive).
Turning to `COC(=O)c1sc(-c2ccc(C(C)(C)C)cc2)cc1NC(=O)c1ccccc1C(=O)O`, the CC50 in assay [1] is more than 100 µM; in assay [2], 88.7 µM.
For `O=C(O)CCCN1C(=O)/C(=C/c2ccc(-c3nc4ccccc4s3)o2)SC1=S` the same measures were more than 100 µM and > 100 µM (inactive).
For `N#C/C(=C\c1ccc(OCc2ccc(Cl)cc2)cc1)C(=O)Nc1cccc(C(=O)O)c1` the same measures were more than 100 µM and > 100 µM (inactive).
For `N#C/C(=C\c1ccc(O)c([N+](=O)[O-])c1)c1nc2ccccc2s1` the same measures were more than 100 µM and > 100 µM (inactive).
Take `O=C1NC(=S)N(c2ccc(F)cc2)C(=O)/C1=C\c1ccoc1`: the half-maximal cytotoxic concentration (CC50) in assay [1] is more than 100 µM.
As for `CCOc1cc(/C=C2\SC(=O)N(CC(=O)Nc3ccccc3F)C2=O)cc([N+](=O)[O-])c1O`, the CC50 is more than 100 µM in assay [1] and > 100 µM (inactive) in assay [2].
